Laboratory results reported in ChEMBL document CHEMBL1201862, “PubChem BioAssay data set” (2004).
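All cell lines were grown in 96-well plates and treated with compound for 48 hours. GI50 is the concentration that inhibits growth by half.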 Active and inactive are the calls of the source. Rule as the data show it: active = GI50 up to about 1.1 µM and inactive = higher.

Assays:
Assay in all cases: NCI tumour cell line growth inhibition, 48 h
NCI-H23 = system: NCI-H23
HCC 2998 = system: HCC 2998
SNB-19 = system: SNB-19
NCI-H522 = system: NCI-H522
CCRF-CEM = system: CCRF-CEM
HCT-116 = system: HCT-116
XF498 = system: XF498
A549 = system: A549
RXF 393 = system: RXF 393
CAKI-1 = system: CAKI-1
SF-539 = system: SF-539
SK-OV-3 = system: SK-OV-3
SN12C = system: SN12C
DMS-273 = system: DMS-273
A498 = system: A498
MOLT-4 = system: MOLT-4
M19-MEL = system: M19-MEL
UACC-257 = system: UACC-257
HOP-18 = system: HOP-18
SW-620 = system: SW-620
COLO 205 = system: COLO 205
IGROV-1 = system: IGROV-1
HOP-62 = system: HOP-62
786-0 = system: 786-0
SNB-75 = system: SNB-75
HL-60 = system: HL-60
SK-MEL-28 = system: SK-MEL-28
LXFL 529 = system: LXFL 529
SK-MEL-2 = system: SK-MEL-2
NCI-H460 = system: NCI-H460
TK-10 = system: TK-10
KM12 = system: KM12
NCI-H226 = system: NCI-H226
SF-268 = system: SF-268
SR = system: SR
KM-20L2 = system: KM-20L2
K562 = system: K562
U-251 = system: U-251
M14 = system: M14
EKVX = system: EKVX
ACHN = system: ACHN
UO-31 = system: UO-31
RPMI-8226 = system: RPMI-8226
OVCAR-5 = system: OVCAR-5
LOX IMVI = system: LOX IMVI
UACC-62 = system: UACC-62
OVCAR-3 = system: OVCAR-3
HOP-92 = system: HOP-92
HT-29 = system: HT-29
OVCAR-4 = system: OVCAR-4
Malme-3M = system: Malme-3M
DMS-114 = system: DMS-114
SF-295 = system: SF-295
SK-MEL-5 = system: SK-MEL-5
OVCAR-8 = system: OVCAR-8
HCT-15 = system: HCT-15

SMILES: O=C(NC12CC3CC(CC(C3)C1)C2)C(=O)c1c[nH]c2ccc([N+](=O)[O-])cc12
- GI50 (NCI-H23): 38.7 µM (inactive)
- GI50 (HCC 2998): > 100 µM (inactive)
- GI50 (SNB-19): > 20.1 µM (inactive)
- GI50 (NCI-H522): 25.2 µM (inactive)
- GI50 (CCRF-CEM): > 44.9 µM (inactive)
- GI50 (HCT-116): 18.7 µM (inactive)
- GI50 (XF498): 18.2 µM (inactive)
- GI50 (A549): 11.3 µM (inactive)
- GI50 (RXF 393): 21.1 µM (inactive)
- GI50 (CAKI-1): 65.9 µM (inactive)
- GI50 (SF-539): 46.1 µM (inactive)
- GI50 (SK-OV-3): 76.6 µM (inactive)
- GI50 (SN12C): 31 µM (inactive)
- GI50 (DMS-273): 5.66 µM (inactive)
- GI50 (A498): 37.8 µM (inactive)
- GI50 (MOLT-4): > 100 µM (inactive)
- GI50 (M19-MEL): 60 µM (inactive)
- GI50 (UACC-257): 85.5 µM (inactive)
- GI50 (HOP-18): 28.6 µM (inactive)
- GI50 (SW-620): 31.7 µM (inactive)
- GI50 (COLO 205): 24.5 µM (inactive)
- GI50 (IGROV-1): > 94.2 µM (inactive)
- GI50 (HOP-62): 17.1 µM (inactive)
- GI50 (786-0): 16.9 µM (inactive)
- GI50 (SNB-75): 14.2 µM (inactive)
- GI50 (HL-60): > 35.6 µM (inactive)
- GI50 (SK-MEL-28): 85.1 µM (inactive)
- GI50 (LXFL 529): 20.2 µM (inactive)
- GI50 (SK-MEL-2): > 59.8 µM (inactive)
- GI50 (NCI-H460): 13.5 µM (inactive)
- GI50 (TK-10): 24.9 µM (inactive)
- GI50 (KM12): 33.7 µM (inactive)
- GI50 (NCI-H226): 23.8 µM (inactive)
- GI50 (SF-268): 9.48 µM (inactive)
- GI50 (SR): 14 µM (inactive)
- GI50 (KM-20L2): 36.5 µM (inactive)
- GI50 (K562): 49 µM (inactive)
- GI50 (U-251): 10.9 µM (inactive)
- GI50 (M14): 34 µM (inactive)
- GI50 (EKVX): 97.3 µM (inactive)
- GI50 (ACHN): 90.4 µM (inactive)
- GI50 (UO-31): > 47.2 µM (inactive)
- GI50 (RPMI-8226): > 83 µM (inactive)
- GI50 (OVCAR-5): > 87.5 µM (inactive)
- GI50 (LOX IMVI): 15.3 µM (inactive)
- GI50 (UACC-62): 19.1 µM (inactive)
- GI50 (OVCAR-3): 24.8 µM (inactive)
- GI50 (HOP-92): 30.3 µM (inactive)
- GI50 (HT-29): > 44.4 µM (inactive)
- GI50 (OVCAR-4): 7.59 µM (inactive)
- GI50 (Malme-3M): 24.7 µM (inactive)
- GI50 (DMS-114): 43.9 µM (inactive)
- GI50 (SF-295): 6.18 µM (inactive)
- GI50 (SK-MEL-5): 30.3 µM (inactive)
- GI50 (OVCAR-8): 19 µM (inactive)
- GI50 (HCT-15): > 78.9 µM

SMILES: COC(=O)[C@H](CC(C)C)NC(=O)[C@H](Cc1ccccc1)N1CC2C=CC1C2 (stereo not given in full)
- GI50 (NCI-H23): > 100 µM (inactive)
- GI50 (HCC 2998): > 100 µM (inactive)
- GI50 (SNB-19): > 100 µM (inactive)
- GI50 (NCI-H522): > 100 µM (inactive)
- GI50 (CCRF-CEM): > 100 µM (inactive)
- GI50 (XF498): > 100 µM (inactive)
- GI50 (A549): > 100 µM (inactive)
- GI50 (RXF 393): > 100 µM (inactive)
- GI50 (CAKI-1): > 100 µM (inactive)
- GI50 (SF-539): > 100 µM (inactive)
- GI50 (SK-OV-3): > 100 µM (inactive)
- GI50 (SN12C): > 100 µM (inactive)
- GI50 (DMS-273): > 100 µM (inactive)
- GI50 (A498): > 100 µM (inactive)
- GI50 (MOLT-4): > 100 µM (inactive)
- GI50 (M19-MEL): > 100 µM (inactive)
- GI50 (UACC-257): > 100 µM (inactive)
- GI50 (HOP-18): > 100 µM (inactive)
- GI50 (SW-620): > 100 µM (inactive)
- GI50 (COLO 205): > 100 µM (inactive)
- GI50 (IGROV-1): > 100 µM (inactive)
- GI50 (HOP-62): > 100 µM (inactive)
- GI50 (786-0): > 100 µM (inactive)
- GI50 (SNB-75): > 100 µM (inactive)
- GI50 (HL-60): 47.6 µM (inactive)
- GI50 (SK-MEL-28): > 100 µM (inactive)
- GI50 (LXFL 529): > 100 µM (inactive)
- GI50 (SK-MEL-2): > 100 µM (inactive)
- GI50 (NCI-H460): > 100 µM (inactive)
- GI50 (TK-10): > 100 µM (inactive)
- GI50 (KM12): > 100 µM (inactive)
- GI50 (NCI-H226): > 100 µM (inactive)
- GI50 (SF-268): > 100 µM (inactive)
- GI50 (KM-20L2): > 100 µM (inactive)
- GI50 (K562): > 100 µM (inactive)
- GI50 (U-251): > 100 µM (inactive)
- GI50 (M14): > 100 µM (inactive)
- GI50 (EKVX): > 100 µM (inactive)
- GI50 (ACHN): > 100 µM (inactive)
- GI50 (UO-31): > 100 µM (inactive)
- GI50 (RPMI-8226): 29.1 µM (inactive)
- GI50 (OVCAR-5): > 100 µM (inactive)
- GI50 (LOX IMVI): > 100 µM (inactive)
- GI50 (UACC-62): > 100 µM (inactive)
- GI50 (OVCAR-3): > 100 µM (inactive)
- GI50 (HOP-92): 96.6 µM (inactive)
- GI50 (HT-29): > 100 µM (inactive)
- GI50 (OVCAR-4): > 100 µM (inactive)
- GI50 (Malme-3M): > 100 µM (inactive)
- GI50 (DMS-114): > 100 µM (inactive)
- GI50 (SF-295): > 100 µM (inactive)
- GI50 (SK-MEL-5): > 100 µM (inactive)
- GI50 (OVCAR-8): > 100 µM (inactive)
- GI50 (HCT-15): > 100 µM
